Measured values from patent publication US20240116946A1 (Gilead Sciences, Inc., priority 2022, published 2024).
Read-outs that look alike come from different tables or passages of the source.

Legend:
[1] = target: recombinant SARS-CoV-2 Main protease (Mpro) (Severe acute respiratory syndrome coronavirus 2 (2019-nCoV) (SARS-CoV-2), UniProt P0DTD1); assay: Cov Mpro Biochemical IC50 Assay; conditions: read-out: MPro IC50
SARS-CoV-2-NLuc = assay: microbe, parasite or virus in culture; assay type: cell-based, SARS Coronavirus 2
[2] = recombinant SARS-CoV-2 Mpro 7.5 nM, fluorogenic peptide substrate 40 μM
[3] = Severe acute respiratory syndrome coronavirus, 48 h, read-out: MPro EC50
[4] = recombinant SARS-CoV-2 Mpro, fluorogenic peptide substrate
[5] = Severe acute respiratory syndrome coronavirus, 48 h; read-out: MPro EC50

Row | Structure (SMILES) | IC50 [1, 2] [nM] | EC50 (SARS-CoV-2-NLuc; [3]) [nM] | IC50 [1, 4] [nM] | EC50 (SARS-CoV-2-NLuc; [5]) [nM]
1 | COc1cc(-c2cc3c(s2)c(=O)n(-c2cncc4nc(C5CCC5)n(C)c24)c(=O)n3CCC#N)c(Cl)cc1F [Example 755] | 33.3 | 243 |  | 
2 | COc1cc(-c2cc3[nH]c(=O)n(-c4cncc5nc(C(F)(F)F)sc45)c(=O)c3s2)c(Cl)cc1F [Example 488] | 1020 | 618 |  | 
3 | CN1CCOc2cc(-c3cccc(Cl)c3-c3ccc4c(=O)n(-c5cncc6ccccc56)c(=O)[nH]c4c3)ccc21 [Example 314] |  | 72.9 | 456 | 
4 | N#CCCn1c(=O)n(-c2cnccn2)c(=O)c2sc(-c3ccccc3Cl)cc21 [Example 828] | 94.1 | 458 |  | 
5 | CCn1cc2cncc(-n3c(=O)c4sc(-c5cc(OC)c(F)cc5Cl)cc4n(CCC#N)c3=O)c2n1 [Example 913] | 4.31 | 4.53 |  | 
6 | Cc1nc2cncc(-n3c(=O)c4sc(-c5cc(F)c(F)cc5Cl)cc4n(CCC#N)c3=O)c2n1C [Example 860] | 39.4 | 212 |  | 
7 | CC(=O)NCCn1c(=O)n(-c2cncc(C3CC3)c2)c(=O)c2sc(-c3ccccc3Cl)cc21 [Example 620] | 281 | 759 |  | 
8 | COc1ccc(Cl)c(-c2cc3[nH]c(=O)n(-c4cncc5ccc(N6CCC(F)(F)C6)cc45)c(=O)c3s2)c1 [Example 414] | 7.63 | 20.1 |  | 
9 | O=c1[nH]c2cc(-c3ccccc3Cl)sc2c(=O)n1-c1cncc2cnccc12 [Example 584] | 12.9 | 31.9 |  | 
10 | CC(C)c1ccccc1-c1ccc2c(=O)n(-c3cncc4ccccc34)c(=O)[nH]c2c1 [Example 52] |  | 3720 | 12800 | 
11 | Cn1cc(-c2cccc(Cl)c2-c2ccc3c(=O)n(-c4cncc5ccccc45)c(=O)[nH]c3c2)c(C(F)(F)F)n1 [Example 265] |  | 17.4 | 25.9 | 
12 | CCS(=O)(=O)c1cccc(-c2cccc(Cl)c2-c2ccc3c(=O)n(-c4cncc5ccccc45)c(=O)[nH]c3c2)c1 [Example 284] |  | 35.6 | 25.8 | 
13 | N#Cc1ccccc1-c1cc2[nH]c(=O)n(-c3cncc4ccccc34)c(=O)c2cc1F [Example 67] |  | 213 | 88.8 | 
14 | COc1cc(-c2cc3c(s2)c(=O)n(-c2cncc4cnn(C)c24)c(=O)n3CC#N)c(Cl)cc1F [Example 641, 2-[6-(2-chloro-4-fluoro-5-methoxy-phenyl)-3-(1-methylpyrazolo[4,3-c]pyridin-7-yl)-2,4-dioxo-thieno[3,2-d]pyrimidin-1-yl]acetonitrile] | 2.2 |  |  | < 4.42
15 | O=c1[nH]c2cc(-c3ccccc3Cl)sc2c(=O)n1-c1cncc(C(F)(F)F)c1 [Example 576, 6-(2-chlorophenyl)-3-(5-(trifluoromethyl)pyridin-3-yl)thieno[3,2-d]pyrimidine-2,4(1H,3H)-dione] | 174 |  |  | 153
16 | COc1cc(-c2cc3c(s2)c(=O)n(-c2cnccn2)c(=O)n3CCC#N)c(Cl)cc1F [Example 893] | 22.1 | 136 |  | 
17 | COc1cc(-c2cc3c(s2)c(=O)n(-c2cncc4nn(C)c(C)c24)c(=O)n3CCC#N)c(Cl)cc1F [Example 926, 3-(6-(2-chloro-4-fluoro-5-methoxyphenyl)-3-(2,3-dimethyl-2H-pyrazolo[3,4-c]pyridin-4-yl)-2,4-dioxo-3,4-dihydrothieno[3,2-d]pyrimidin-1(2H)-yl)propanenitrile] | 6.74 | 8.89 |  | 
18 | COc1cc(-c2cc3c(s2)c(=O)n(-c2cnccc2C)c(=O)n3CCC#N)c(Cl)cc1F [Example 987, 3-[6-(2-chloro-4-fluoro-5-methoxy-phenyl)-3-(4-methyl-3-pyridyl)-2,4-dioxo-thieno[3,2-d]pyrimidin-1-yl]propanenitrile] | 5.68 | 5.97 |  | 
19 | O=c1c2sc(-c3ccccc3Cl)cc2n(CC2CCOCC2)c(=O)n1-c1cncc2ccccc12 [Example 120, 6-(2-chlorophenyl)-3-(isoquinolin-4-yl)-1-((tetrahydro-2H-pyran-4-yl)methyl)thieno[3,2-d]pyrimidine-2,4(1H,3H)-dione] |  | 275 | 96.8 | 
